Measurements taken from patent publication US5843916A, “Cyclic amp analogues, individually and in pairs, to inhibit neoplastic cell growth” (priority 1994, dated 1998).
Like-named read-outs stand apart in the source and are kept apart here.

Tests used:
[1] = system: breast and colon cancer lines (MCF-7, T-47D, ZR-75-1, MCF-7ras, MDA-MB-231, BT-20, HBL-100, LS-174T, WiDr, HT-29); test: Growth inhibition of breast and colon cancer lines (FIG. 1); format: cell-based, human; conditions: 0.5 mM, alone
[2] = system: four leukemic cell lines (HL-60, K-562, myc-K562, Molt-4); test: Growth inhibition of leukemic cell lines; format: cell-based, human
[3] = system: cultured human fibroblasts; conditions: cited from earlier work
YAC lymphoma cell = conditions: mouse, in vivo; cited from earlier work
Molt-4 = test: Growth inhibition of leukemic cells (Table 12); format: cell-based, human; conditions: Homo sapiens, MOLT-4; read-out: Inhibition of Growth IC50, Molt-4
K-562 = test: Growth inhibition of leukemic cells (Table 12); format: cell-based; conditions: Homo sapiens, K562
[4] = system: MCF-7ras breast cancer cell line; test: Synergistic growth inhibition by analogue combinations (Table 2); format: cell-based, human; conditions: footnote of Table 2
Experimental: All breast cancer cell lines were grown in IMEM supplemented with 10% fetal bovine serum, HEPES 20 mM, penicillin-streptomycin, and extra glutamine. Colon carcinoma cell lines were grown in EMEM supplemented with 10% FBS, EMEM, NEAA, HEPES 20 mM, extra glutamine, and penicillin-streptomycin. The cells were grown at 37° C. in humidified incubators in an atmosphere of 5% CO2.
For cell growth experiments, 2-3×10^5 cells/60 mm dish were seeded, and 24 hours later (Day 0), the medium was removed, and fresh medium and the additives were added then and every 48 hours thereafter. The compounds of the present invention were added using 100X concentrated stock solutions. At desired times, cell counts in duplicate were performed on a Coulter counter after harvesting the cells with gentle trypsinization.
Synergism quotient was defined as the net growth inhibitory effect of the analogue combination divided by the sum of the net analogue effects on growth inhibition. A quotient of >1 indicates a synergistic effect, while a quotient of <1 indicates an antagonistic effect.
Synergism of growth inhibition was determined by
treatment of cells with C-6 analogues and C-8 analogues alone
and in combination at Day 0 and Day 2 and counting the cell
^a Data are expressed as percentage growth inhibition in reference to
the growth of untreated control cells and represent average values and
ranges (in parentheses) of duplicate cell counts on three or more separat
experiments. The values for percentage growth inhibition of each analogue
^b The synergism quotient was defined as previously described.

[5] = system: breast (MCF-7) and colon (LS-174T) cancer cell lines; test: Growth inhibition of breast and colon cancer cells (Table 1); format: cell-based, human; conditions: Homo sapiens
Experimental: The compounds of the present invention were added using 100X concentrated stock solutions. At desired times, cell counts in duplicate were performed on a Coulter counter after harvesting the cells with gentle trypsinization. […] Cell counts were performed on each of three or more separate experiments, and the average values are expressed as percent growth inhibition as compared with untreated control cells. | ^a The values of percentage growth inhibition were determined from th | doseresponse curve experiments. Each value represents an average value an | range (in parentheses) obtained from three or more separate experiments. | The cell counts in duplicate were performed at day 3 and day 4 after two | treatments (day 0 and day 2) with analogs (seeding on day -1).

HL-60 = test: Growth inhibition of leukemic cells (Table 12); format: cell-based; conditions: Homo sapiens
myc-K562 = test: Growth inhibition of leukemic cells (Table 12); format: cell-based; conditions: Homo sapiens
[6] = system: breast and colon cancer cells; test: Effect on cell morphology (FIG. 2); format: cell-based, human; conditions: 100 μM; three to four days
From the text: The photographs were taken on Day 4, ×160.
Furthermore, the synergistic growth inhibitory effect of C-6 and C-8 analogue combinations was also reflected in the change in the cell morphology.

[7] = system: HL-60 human leukemia cells; test: Growth inhibition of HL-60 leukemia cells (Example 3, Table 16); format: cell-based; conditions: for IC50: Homo sapiens
Experimental: HL-60 leukemic cells were obtained from the American Type Culture Collection (Rockville, Md.) and were grown in suspension culture in RPMI 1640 supplemented with 10% heat-inactivated fetal bovine serum, streptomycin (500 μg/ml), penicillin (50 units/ml), and glutamine (1 mM) (Gibco, Grand Island, N.Y.).
Cell counts were performed at desired times on a Coulter Counter.
The IC50 values were determined from the dose-
represent an average value obtained for each analogue
from two or more separate experiments carried out from 3
days or 6 days. Initial cell number, 1 × 10^5 /dish.
Typical numbers of untreated control cells at day 3 and
viability in treated and control cells.

[8] = system: LS-174T human colon carcinoma cells; test: Growth inhibition of LS-174T cells (Example 4, Table 18); format: cell-based
Experimental: LS-174T human colon carcinoma cells were obtained from the National Cancer Institute, Division of Cancer Treatment, Bethesda, Md., and were grown in Eagle's minimum essential medium supplemented with 10% heat-inactivated fetal bovine serum, Eagle's minimum essential medium nonessential amino acids, 20 mM 4-(2-hydroxyethyl)-1-piperazineethanesulfonic acid, 2mM glutamine, and penicillin-streptomycin (Gibco). The medium was changed every 48 hours.
LS-174T cells were seeded at a density of 2×10^5 / 60 mm dish. […] At desired times, cell counts were performed in duplicate on a Coulter Counter after harvesting cells with gentle trypsinization.
The percentage growth inhibition values shown at 10
and 50 μM analogue concentrations were determined from
the dose-response curve experiments like those shown in
FIG. 1 and represent an average value obtained for each
analogue from two or more separate experiments. Sp-6-SET-

HL-60 Cells = test: Cell cycle kinetics of HL-60 cells (Table 17); format: cell-based, human; conditions: for % G2 M / % G0-G1 / % S: 96 hours; for % G2 M: control 8.3; for % G0-G1: control 45.7; for % S: control 46
Experimental: (§1) Briefly, cells were fixed in 70% ethanol and stored at 4° C. before analysis. Nuclear DNA was stained with propidium iodide, 50 μg/ml in phosphate-buffered saline (pH 7.4), for 30 minutes at room temperature. RNase was added to avoid double-helix RNA staining. The DNA content of cells was analyzed by a FACScan flow cytometer coupled with a Hewlett-Packard computer. Cell cycle data analysis was performed by a Cell-FIT program according to the method of Dean (Cell Tissue Kinet. 13: 299-308 (1980)) (Becton Dickinson Immunocytometry Systems). Pulse area versus pulse width gating was performed to exclude doublets from the G2 -M region. For each sample, 20,000 events were stored in list mode. Cell surface antigen analysis was performed by flow cytometry with FACScan using a panel of monoclonal antibodies reactive with either monocytic or myeloid cells.

[9] = target: T1, RI, regulatory subunit of cAMP-dependent protein kinase type I (Oryctolagus cuniculus, UniProt G1TDN4); test: Binding affinity for RI (Table 14)
T1 construct: from tissue
Experimental: (§2) RI and RII are the regulatory subunits of cAMP-dependent protein
(§3) kinase type I and type II, respectively. Site A (Site 2) and Site B
(§4) (RI and RII): the affinities of analogues for Site A and Site B were
(§5) determined by the measurement of kinetic constants (inhibition constant,
(§6) Ki), and the values are expressed as the relative affinity Ki
(§7) (analogue), i.e., the ratio between the apparent inhibition constant for
(§8) cAMP and the analogue, as described in Ogreid et al., Eur. J. Biochem.

HL-60 leukemia cells = test: Surface antigen expression of HL-60 cells (Example 5); format: cell-based, human; conditions: 100 μM
Experimental: as §1
The effect of Rp- and Sp-8-Cl-cAMPS on the expression of differentiation markers in HL-60 cells was examined to determine if the growth-arrested HL-60 cells are more differentiated than untreated cells. […] For each sample, 2×10^4 cells were analyzed. Cell surface antigen analysis was performed by flow cytometry with FACScan. Cell gating was performed using forward and side scatter.

[10] = target: T2, Protein kinase type I (cAKI) (Oryctolagus cuniculus, UniProt G1TDN4); test: Protein kinase activation (Table 15); format: biochemical, rabbit (skeletal muscle)
T2 construct: prepared from rabbit skeletal muscle and bovine heart; from tissue; host or cells: rabbit skeletal muscle
Experimental: (§9) ATP to Kemptide as described by Ogreid et al., Eur. J. Biochem. 150: 219-227 (1985).
(§10) Protein kinases types I (cAKI) and II (cAKII) were
(§11) prepared from rabbit skeletal muscle and bovine heart,
(§12) respectively, as described in D.o slashed.skeland et al. (J. Biol.
(§13) of the protein kinase in Ogreid et al. (Eur. J. Biochem.

[11] = target: T3, RII, regulatory subunit of cAMP-dependent protein kinase type II (Bos taurus, UniProt P00515); test: Binding affinity for RII (Table 14)
T3 construct: from tissue
Experimental: as §2, §3, §4, §5, §6, §7, §8

[12] = target: T4, Protein kinase type II (cAKII) (Bos taurus, UniProt P00515); test: Protein kinase activation (Table 15); format: biochemical, bovine (heart)
T4 construct: prepared from rabbit skeletal muscle and bovine heart; from tissue; host or cells: bovine heart
Experimental: as §9, §10, §11, §12, §13

[13] = system: breast and colon cancer lines (MCF-7, T-47D, ZR-75-1, MCF-7ras, MDA-MB-231, BT-20, HBL-100, LS-174T, WiDr, HT-29); conditions: millimolar concentrations; previously reported; cited from earlier work
[14] = system: disseminated neuroblastomas; conditions: combined drug regimen; cited from earlier work
[15] = 72 h, 50 μM, day 3, average (range), read-out: % Growth Inhibition, Day 3
[16] = 96 h, 50 μM, day 4, average (range), read-out: % Growth Inhibition, Day 4
[17] = 50 micromolar, read-out: growth inhibition
[18] = half-maximum activation, U. M.: unmeasurable

T3 sequence (P00515 whole entry): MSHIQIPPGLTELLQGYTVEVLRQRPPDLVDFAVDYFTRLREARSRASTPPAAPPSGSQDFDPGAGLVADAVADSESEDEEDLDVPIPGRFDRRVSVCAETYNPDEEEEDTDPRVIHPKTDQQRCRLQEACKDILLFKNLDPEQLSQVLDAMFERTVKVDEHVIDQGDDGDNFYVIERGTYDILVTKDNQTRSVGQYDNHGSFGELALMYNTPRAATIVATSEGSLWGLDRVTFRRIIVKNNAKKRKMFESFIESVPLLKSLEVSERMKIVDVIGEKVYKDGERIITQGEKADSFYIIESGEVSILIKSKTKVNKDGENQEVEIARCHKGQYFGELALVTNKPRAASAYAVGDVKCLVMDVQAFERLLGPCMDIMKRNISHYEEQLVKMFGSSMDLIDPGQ
T1 sequence (G1TDN4 1-381): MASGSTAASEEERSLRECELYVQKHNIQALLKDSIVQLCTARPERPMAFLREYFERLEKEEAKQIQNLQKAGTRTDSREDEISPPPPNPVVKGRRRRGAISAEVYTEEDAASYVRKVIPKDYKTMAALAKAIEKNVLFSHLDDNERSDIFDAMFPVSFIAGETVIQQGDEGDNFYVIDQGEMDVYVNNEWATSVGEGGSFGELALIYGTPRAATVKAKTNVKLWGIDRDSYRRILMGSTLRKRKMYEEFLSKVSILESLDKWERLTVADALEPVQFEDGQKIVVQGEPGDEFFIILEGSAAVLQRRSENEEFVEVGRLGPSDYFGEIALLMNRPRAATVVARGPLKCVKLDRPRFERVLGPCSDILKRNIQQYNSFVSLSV
T4 sequence (P00515 2-401 limits assumed): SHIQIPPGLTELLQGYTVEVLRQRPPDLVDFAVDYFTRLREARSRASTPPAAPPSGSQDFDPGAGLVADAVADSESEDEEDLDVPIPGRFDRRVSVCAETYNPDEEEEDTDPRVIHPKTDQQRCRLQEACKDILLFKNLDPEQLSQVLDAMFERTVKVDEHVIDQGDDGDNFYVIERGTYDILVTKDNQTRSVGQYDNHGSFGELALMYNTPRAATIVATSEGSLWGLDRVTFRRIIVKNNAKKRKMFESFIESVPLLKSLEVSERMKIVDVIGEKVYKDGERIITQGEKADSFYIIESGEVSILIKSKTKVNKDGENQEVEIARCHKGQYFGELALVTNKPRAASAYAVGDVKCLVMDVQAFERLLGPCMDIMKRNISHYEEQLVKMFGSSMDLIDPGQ
T2 sequence (G1TDN4 1-381): as the sequence (G1TDN4 1-381) above

## CC(C)Cn1c(=O)n(C)c(=O)c2[nH]cnc21 [1-methyl-3-isobutylxanthine]
[1]
  growth inhibitory effect: little or no growth inhibitory effect
[2]; 0.5 mM, alone
  growth inhibitory effect: little or no growth inhibitory effect
[3]; added during first eight hours after serum addition
  DNA synthesis: not delayed
[3]; added more than eight hours after serum addition
  DNA synthesis: inhibitory

## cholera toxin
YAC lymphoma cell
  inhibition of YAC lymphoma cell proliferation: almost complete inhibition of YAC lymphoma cell proliferation for up to four days

## CNc1nc2c(N)ncnc2n1[C@@H]1O[C@@H]2COP(=O)(O)O[C@H]2[C@H]1O [8-methylamino-cAMP]
Molt-4
  IC50: 100 µM
K-562
  IC50: 100 µM
[4]
  percentage growth inhibition of each analogue when added alone: 10%
[5]; [15]
  inhibition at 50 µM: 14%
[5]; [16]
  inhibition at 50 µM: 15%
[5]; [17]
  inhibition at 50 µM: ≤ 20%
HL-60
  IC50: 100 µM
[2]; leukemic cell lines
  times less potent than 8-Cl-cAMP: 5-20 times
myc-K562
  IC50: 100 µM

## O=C(Nc1ncnc2c1ncn2[C@@H]1O[C@@H]2COP(=O)(O)O[C@H]2[C@H]1O)c1ccccc1 [N^6 -benzoyl-cAMP]
Molt-4
  IC50: 40 µM
K-562
  IC50: 45 µM
[4]
  percentage growth inhibition of each analogue when added alone: 10%
[5]; [15]
  inhibition at 50 µM: 30%
[5]; [16]
  inhibition at 50 µM: 28%
HL-60
  IC50: 50 µM
[2]; Homo sapiens, leukemic cell lines, range
  IC50: 40 to 50 µM
myc-K562
  IC50: 50 µM

## CSc1nc2c(N)ncnc2n1[C@@H]1O[C@@H]2COP(=O)(O)O[C@H]2[C@H]1O [8-methylthio-cAMP]
Molt-4
  IC50: 100 µM
K-562
  IC50: 100 µM
[5]; [15]
  inhibition at 50 µM: 46%
[5]; [16]
  inhibition at 50 µM: 42%
[5]; [17]
  inhibition at 50 µM: 40 to 75%
HL-60
  IC50: 100 µM
[2]; leukemic cell lines
  times less potent than 8-Cl-cAMP: 5-20 times
[6]
  cell morphology: induced the morphological change
myc-K562
  IC50: 100 µM

## Nc1ncnc2c1nc(Cl)n2[C@@H]1O[C@@H]2CO[P@](O)(=S)O[C@H]2[C@H]1O [Sp-8-Cl-cAMPS, Sp-(axial exocyclic sulfursubstitution) 8-chloro-adenosine 3': 5'-monophosphorothioate]
[7]; HL-60, 72 h, read-out: Growth inhibition (IC50), Day 3
  IC50: 100 µM
[7]; HL-60, 144 h, read-out: Growth inhibition (IC50), Day 6
  IC50: 8 µM
[7]; growth inhibition HL-60, day 6
  fold less potent than 8-Cl-cAMP: 20 fold
[8]; Homo sapiens, LS174T
  inhibition at 10 µM: 20%
  inhibition at 50 µM: 40%
[8]; LS-174T
  growth inhibitory potency: moderate potency
HL-60 Cells; 10 μM
  % G2 M: 8.9%
  % G0-G1: 46.8%
  % S: 44.3%
HL-60 Cells; 50 μM
  % G2 M: 8.6%
  % G0-G1: 46%
  % S: 45.4%
HL-60 Cells; 100 μM
  % G2 M: 9.0%
  % G0-G1: 56%
  % S: 35%
HL-60 Cells; HL-60, 96 hours in Table 17
  cell cycle phase distribution: not appreciably different
[9]; Site A (Site 2)
  relative affinity Ki (cAMP)/Ki (analogue), RI Site A: 0.18
[9]; Site B (Site 1)
  relative affinity Ki (cAMP)/Ki (analogue), RI Site B: 0.037
[9]; vs cyclophosphate
  decrease in affinity for Site A of RI vs corresponding cyclophosphate: 15 fold
  decrease in affinity for Site B of RI vs corresponding cyclophosphate: 54 fold
HL-60 leukemia cells
  surface antigen expression: no appreciable effect on the surface antigen expression
[10]; [18]
  Activation Constant (Ka), cAKI: 2.5 × 10^-7
[10]; vs 8-Cl-cAMP
  increase in the Ka for protein kinase type I vs 8-Cl-cAMP: 11 fold
[11]; Site A (Site 2)
  relative affinity Ki (cAMP)/Ki (analogue), RII Site A: 0.0023
[11]; Site B (Site 1)
  relative affinity Ki (cAMP)/Ki (analogue), RII Site B: 2.4
[11]; vs cyclophosphate
  decrease in affinity for Site A of RII vs corresponding cyclophosphate: 22 fold
  decrease in affinity for Site B of RII vs corresponding cyclophosphate: 1.9 fold
[12]; [18]
  Activation Constant (Ka), cAKII: 2.5 × 10^-7
[12]; vs 8-Cl-cAMP
  increase in the Ka for protein kinase type II vs 8-Cl-cAMP: 2.5 fold

## CCCC(=O)Nc1ncnc2c1ncn2[C@@H]1O[C@@H]2COP(=O)(O)O[C@H]2[C@H]1O [N^6 -butyryl-cAMP]
[5]; [15]
  inhibition at 50 µM: 0%
[5]; [16]
  inhibition at 50 µM: 0%
[13]
  growth inhibition: growth inhibition only in the hormone-dependent breast cancer lines

## COc1ccc(Cc2nccc3cc(OC)c(OC)cc23)cc1OC [papaverine]
[14]
  clinical result: promising results
